Source: patent US8389508B2 (Glaxo Group Limited, priority 2010, dated 2013)
Structures can show the parent of a compound that is named as a salt.

Columns and labels:
[1] = clinical studies, Kappos et al 2006; cited from earlier work
[2] = molecular target: T1, human Endothelial Differentiation Gene 1 (EDG1), S1P1 receptor (Homo sapiens, UniProt P21453); assay: S1P1 Assay (Tango EDG1-bla/U2OS beta-lactamase reporter, agonist dose response); assay type: cell-based; settings: EDG1-bla/U2OS cells, blue/green emission ratio, 10 point dose response, free base or salt form; read-out: pEC50 (S1P1 assay) (converted)
T1 construct: TEV protease site; Gal4-VP16 transcription factor; expressed in transfected cells; host or cells: EDG1-bla/U2OS (Tango GPCR-bla U2OS parental cell line)
Procedure, shortened: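 U2OS Tango cells with human EDG1 coupled to TEV site/Gal4-VP16 beta-lactamase reporter, serum-starved 24 h, then exposed overnight at 37 °C to 10-point compound dilutions. CCF4-AM FRET substrate 2 h RT; 460/530 nm ratio normalised to agonist and DMSO controls, sigmoidal fit; intrinsic activity relative to a reference compound set at 100%.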

[3] = molecular target: T2, human Endothelial Differentiation G-protein Coupled Receptor 3 (EDG3), S1P3 receptor (Homo sapiens, UniProt Q99500); assay: S1P3 Assay (GeneBLAzer EDG3-Ga15-NFAT-bla HEK 293T beta-lactamase reporter, agonist dose response); assay type: cell-based; settings: EDG3-Ga15-NFAT-bla HEK 293T cells, blue/green emission ratio, 10 point dose response, free base or salt form; read-out: pEC50 (S1P3 assay) (converted)
T2 construct: expressed in transfected cells; host or cells: GeneBLAzer EDG3-Ga15-NFAT-bla HEK 293T
Procedure, shortened: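 HEK 293T cells stably expressing human EDG3 with Ga15 and NFAT-beta-lactamase reporter, ~10,000 cells/well, exposed overnight at 37 °C to 10-point compound doses in charcoal-stripped serum medium. CCF4-AM substrate loaded 2 h at room temperature; 460/530 nm ratio normalized to DMSO and agonist controls, sigmoidal fit; intrinsic activity relative to reference agonist maximum (100%).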

T1 sequence (P21453 whole entry, the tested form may be a part): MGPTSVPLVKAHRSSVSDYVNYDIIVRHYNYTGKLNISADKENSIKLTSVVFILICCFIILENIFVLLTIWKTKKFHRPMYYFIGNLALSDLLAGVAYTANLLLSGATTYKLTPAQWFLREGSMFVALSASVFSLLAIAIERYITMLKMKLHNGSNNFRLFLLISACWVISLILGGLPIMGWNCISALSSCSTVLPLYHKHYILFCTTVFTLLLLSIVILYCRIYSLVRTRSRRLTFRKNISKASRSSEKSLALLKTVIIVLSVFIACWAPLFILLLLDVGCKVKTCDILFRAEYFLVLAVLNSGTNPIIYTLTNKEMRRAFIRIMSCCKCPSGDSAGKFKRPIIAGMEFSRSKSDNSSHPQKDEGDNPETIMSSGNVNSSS
T2 sequence (Q99500 whole entry): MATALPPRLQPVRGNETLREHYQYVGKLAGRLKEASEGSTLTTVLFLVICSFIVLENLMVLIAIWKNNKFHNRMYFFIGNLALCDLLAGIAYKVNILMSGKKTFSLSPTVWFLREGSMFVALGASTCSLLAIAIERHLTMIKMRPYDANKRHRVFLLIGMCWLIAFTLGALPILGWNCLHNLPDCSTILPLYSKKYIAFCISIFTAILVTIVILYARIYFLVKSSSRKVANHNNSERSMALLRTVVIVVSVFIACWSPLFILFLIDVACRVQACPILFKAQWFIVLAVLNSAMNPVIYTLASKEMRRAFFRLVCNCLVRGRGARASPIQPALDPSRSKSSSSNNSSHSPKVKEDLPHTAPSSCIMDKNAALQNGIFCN

Row | Structure (SMILES) | EC50 [2] | EC50 [3] | bradycardia on treatment [1]
1 | CCCCCCCCc1ccc(CCC(N)(CO)CO)cc1 [FTY720] | – | – | bradycardia in the first 24 hours of treatment
2 | CCc1c(CCN2CCC(C(=O)O)C2)cccc1-c1nnc(-c2ccc(OC(C)C)c(Cl)c2)s1 (centres unmarked) [Example 12, 1-{2-[3-(5-{3-chloro-4-[(1-methylethyl)oxy]phenyl}-1,3,4-thiadiazol-2-yl)-2-ethylphenyl]ethyl}-3-pyrrolidinecarboxylic acid trifluoroacetate] | < 1 nM | > 3160 nM | –
3 | CCc1c(CN2CC(C(=O)O)C2)cccc1-c1nnc(-c2ccc(CC(C)C)c(C#N)c2)s1 [Example 9, 1-[(3-{5-[3-cyano-4-(2-methylpropyl)phenyl]-1,3,4-thiadiazol-2-yl}-2-ethylphenyl)methyl]-3-azetidinecarboxylic acid trifluoroacetate] | < 1 nM | > 10000 nM | –
4 | CCc1c(CCN2CC(C(=O)O)C2)cccc1-c1nnc(-c2ccc(CC(C)C)c(C#N)c2)s1 [Example 10, 1-[2-(3-{5-[3-cyano-4-(2-methylpropyl)phenyl]-1,3,4-thiadiazol-2-yl}-2-ethylphenyl)ethyl]-3-azetidinecarboxylic acid] | < 1 nM | > 3160 nM | –
5 | CCc1c(CN2CC(C(=O)O)C2)cccc1-c1cnc(-c2ccc(OC(C)C)c(Cl)c2)s1 [Example 39, 1-{[3-(2-{3-chloro-4-[(1-methylethyl)oxy]phenyl}-1,3-thiazol-5-yl)-2-ethylphenyl]methyl}-3-azetidinecarboxylic acid trifluoroacetate] | < 1 nM | > 10000 nM | –
6 | CCc1c(CN2CCC(C(=O)O)CC2)cccc1-c1cnc(-c2ccc(OC(C)C)c(C(F)(F)F)c2)s1 [Example 32, 1-[(2-ethyl-3-{2-[4-[(1-methylethyl)oxy]-3-(trifluoromethyl)phenyl]-1,3-thiazol-5-yl}phenyl)methyl]-4-piperidinecarboxylic acid] | < 1 nM | > 3160 nM | –
7 | COc1c(CCN2CC(C(=O)O)C2)cc(F)cc1-c1cnc(-c2ccc(OC(C)C)c(Cl)c2)s1 [Example 33, 1-{2-[3-(2-{3-chloro-4-[(1-methylethyl)oxy]phenyl}-1,3-thiazol-5-yl)-5-fluoro-2-(methyloxy)phenyl]ethyl}-3-azetidinecarboxylic acid trifluoroacetate] | < 1 nM | > 3160 nM | –
8 | CCc1c(CCN2CC(C(=O)O)C2)cccc1-c1nsc(-c2ccc(OC(C)C)c(C#N)c2)n1 [Example 26, 1-{2-[3-(5-{3-cyano-4-[(1-methylethyl)oxy]phenyl}-1,2,4-thiadiazol-3-yl)-2-ethylphenyl]ethyl}-3-azetidinecarboxylic acid trifluoroacetate] | < 1 nM | > 3160 nM | –
9 | CCc1c(CN2CC(C(=O)O)C2)cccc1-c1nsc(-c2ccc(OC(C)C)c(C#N)c2)n1 [Example 17, 1-{[3-(5-{3-cyano-4-[(1-methylethyl)oxy]phenyl}-1,2,4-thiadiazol-3-yl)-2-ethylphenyl]methyl}-3-azetidinecarboxylic acid trifluoroacetate] | ≤ 10 nM | > 3160 nM | –
10 | COc1c(CCN2CC(C(=O)O)C2)cc(F)cc1-c1nnc(-c2ccc(OC(C)C)c(C(F)(F)F)c2)s1 [Example 14, 1-{2-[5-fluoro-3-{5-[4-[(1-methylethyl)oxy]-3-(trifluoromethyl)phenyl]-1,3,4-thiadiazol-2-yl}-2-(methyloxy)phenyl]ethyl}-3-azetidinecarboxylic acid] | ≤ 10 nM | > 10000 nM | –

More lines, main results first:

Row | EC50 [2] | EC50 [3] | Structure (SMILES) | bradycardia on treatment [1]
11 | < 1 nM | > 3160 nM | CCc1c(CCN2CCC(C(=O)O)C2)cccc1-c1nnc(-c2ccc(CC(C)C)c(C#N)c2)s1 (centres unmarked) [Example 61] | –
12 | ≤ 10 nM | > 10000 nM | CCc1c(-c2nsc(-c3ccc(OC(C)C)c(Cl)c3)n2)cccc1C1CCN(CCCC(=O)O)CC1 [Example 102, 4-{4-[3-(5-{3-chloro-4-[(1-methylethyl)oxy]phenyl}-1,2,4-thiadiazol-3-yl)-2-ethylphenyl]-1-piperidinyl}butanoic acid trifluoroacetate] | –
13 | ≤ 10 nM | > 3160 nM | CCc1c(CCN2CCC(CC(=O)O)CC2)cccc1-c1nsc(-c2ccc(OC(C)C)c(Cl)c2)n1 [Example 72] | –
14 | < 1 nM | > 3160 nM | CCc1c(CCN2CC(C(=O)O)C2)cccc1-c1cnc(-c2ccc(OC(C)C)c(Cl)c2)s1 [Example 41, 1-{2-[3-(2-{3-chloro-4-[(1-methylethyl)oxy]phenyl}-1,3-thiazol-5-yl)-2-ethylphenyl]ethyl}-3-azetidinecarboxylic acid trifluoroacetate] | –
15 | ≤ 10 nM | > 10000 nM | CCc1c(CN2CCC(C(=O)O)CC2)cccc1-c1cnc(-c2ccc(CC(C)C)c(C#N)c2)s1 [Example 42, 1-[(3-{2-[3-cyano-4-(2-methylpropyl)phenyl]-1,3-thiazol-5-yl}-2-ethylphenyl)methyl]-4-piperidinecarboxylic acid trifluoroacetate] | –
16 | ≤ 10 nM | > 3160 nM | CCc1c(CCN2CCC[C@H]2C(=O)O)cccc1-c1nsc(-c2ccc(OC(C)C)c(Cl)c2)n1 [Example 65, 1-{2-[3-(5-{3-chloro-4-[(1-methylethyl)oxy]phenyl}-1,2,4-thiadiazol-3-yl)-2-ethylphenyl]ethyl}-L-proline trifluoroacetate] | –
17 | ≤ 10 nM | > 10000 nM | CCc1c(CCN2C[C@H](O)C[C@H]2C(=O)O)cccc1-c1nnc(-c2ccc(OC(C)C)c(Cl)c2)s1 [Example 55] | –
18 | ≤ 10 nM | > 3160 nM | CCc1c(-c2nsc(-c3ccc(OC(C)C)c(Cl)c3)n2)cccc1C1CCN(CC(=O)O)CC1 [Example 99, {4-[3-(5-{3-chloro-4-[(1-methylethyl)oxy]phenyl}-1,2,4-thiadiazol-3-yl)-2-ethylphenyl]-1-piperidinyl}acetic acid trifluoroacetate] | –
19 | < 1 nM | > 3160 nM | CCc1c(CCN2CCCC(C(=O)O)C2)cccc1-c1nnc(-c2ccc(CC(C)C)c(C#N)c2)s1 (centres unmarked) [Example 63] | –
20 | ≤ 10 nM | > 10000 nM | CCc1c(CN2CCC[C@H](C(=O)O)C2)cccc1-c1nnc(-c2ccc(OC(C)C)c(Cl)c2)s1 [Example 47] | –
21 | ≤ 10 nM | > 10000 nM | CCc1c(CN2CCCC(C(=O)O)C2)cccc1-c1nnc(-c2ccc(CC(C)C)c(C#N)c2)s1 (centres unmarked) [Example 50] | –
